The values that follow come from patent publication US12239643B2, “Therapeutic agent for inflammatory diseases, autoimmune diseases, fibrotic diseases, and cancer diseases” (MEIJI SEIKA PHARMA CO., LTD., priority 2018, dated 2025).

Where two headings read alike, the source gives them in different places.

The subject of data set [1] is oxazolone-induced auricle edema, BALB/c mice. The experiment in a line: Hapten repeated application mouse chronic dermatitis model (oral, topical). In kind it is in vivo. Conditions: oral, 0.3 to 10 mg/kg twice a day for 10 days. On the procedure: Evaluation was carried out using female BALB/c mice (7 to 8 weeks of age). First, the hair of the abdomen of the mice was treated with a hair clipper, and then 150 μL of a 3% oxazolone acetone/ethanol solution was applied to the abdomen as a hapten. One week later, 20 μL/ear of 1% oxazolone acetone/ethanol solution was applied to the outer surface of the auricle of both ears of the mice 3 times/week to induce inflammation. A 1% oxazolone-acetone/ethanol solution was applied every other day for 10 days from 1 week after the start of inflammation induction. In addition, for 10 days from 1 week after the start of inflammation induction, the test compound suspended in 0.5% w/v methylcellulose (0.5% MC) was orally administered at 0.3 to 10 mg/kg twice a day (10 μL/g), or 20 μL of a 0.3 to 3% test compound dissolved in an acetone/ethanol solution was applied once or twice a day (topical administration). A 1% oxazolone was not applied to the blank. The control was one in which 1% oxazolone was applied and only 0.5% MC was orally administered without using the test compound, or only an acetone/ethanol solution was applied.
After administration for 10 days, auricle thickness was measured using a dial thickness gauge, and the changes in auricular thickness before the treatment (immediately before the start of administration of the test compound) and after the treatment (after the administration of the test compound for 10 days) were used to calculate the edema suppression rate by the following formula. Edema Suppression Rate (%)={1−(Auricle Thickness After Treatment by Test Compound−Auricle Thickness Before Treatment by Test Compound)/(Auricle Thickness After Treatment of Control−Auricle Thickness Before Treatment of Control)}×100
The measurement results obtained by measuring the edema suppression rate at the time of oral administration of each test compound by the above method were evaluated in accordance with the following evaluated basis; A: 70% or more, B: 40% or more and less than 70%, and C: less than 40%. In addition, the measurement results obtained by measuring the edema suppression rate at the time of topical administration of each test compound were evaluated in accordance with the following evaluated basis; A: 100% or more, B: 70% or more and less than 100%, and C: less than 70%.

In data set [2] the test system is PDE4. The experiment in a line: Evaluation of PDE4 inhibitory activity, scintillation proximity assay. In kind it is biochemical. Conditions: for PDE4 inhibitory activity: summary in words of Tables 57 to 69. An outline of the steps: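 SPA with [2,8-3H]-cAMP and diluted PDE4 enzyme preparation in 50 mM Tris-HCl pH 7.4, 8.3 mM MgCl2, 1.7 mM EGTA, 3 mg/mL BSA, 120 min at room temperature. Product captured on ZnSO4-containing YSi-SPA beads, scintillation counted; IC50 from inhibition curves vs DMSO control and no-enzyme blank.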
In general terms: Scintillation proximity formats need no separation of bound from free tracer.

The subject of data set [3] is TNFα. The experiment in a line: Cytokine suppression using whole human blood: TNFα (lipopolysaccharide stimulus). It counts as cell-based. Conditions: human whole blood, read-out: TNFα Inhibitory Activity, Human Whole Blood (Test Example 3). Here is the method:
The test compound dissolved in dimethyl sulfoxide was added to a 96-well plate, and RPMI-1640 medium and human peripheral blood containing sodium heparin were added, followed by culture at 37° C. under 5% CO2 for 1 hour. A medium containing only dimethyl sulfoxide instead of the test compound was added to the control well. To each well, lipopolysaccharide (final concentration 10 ng/mL) as a TNFα production stimulant, or phytohaemagglutinin (final concentration 20 μg/mL) as an IL-17A production stimulant, or CytoStim reagent ( 1/100 concentration) and CD28 antibody (final concentration 2.5 ng/mL) as an IL-4 production stimulant and an IL-5 production stimulant were added, followed by culture at 37° C. under 5% CO2. The culture was carried out for about 18 hours for the evaluation of the amount of TNFα, and for about 48 hours for the evaluation of the amounts of IL-17A, IL-4, and IL-5.
After collecting the culture supernatant after culturing, the amount of each cytokine was measured by the sandwich ELISA method. The cytokine production suppression rate (inhibition rate) by the test compound was calculated by the following formula from the cytokine production amount when the test compound was added, with the cytokine production amount for the control well as 100%. Inhibition Rate={1−(Cytokine Amount at Addition of Each Test Compound)/(Cytokine Amount for Control Well)}×100
In addition, the cytokine inhibitory activity (concentration for the inhibition rate of 50%) of the test compound was calculated from the inhibition curves based on the inhibition rates for various concentrations of the test compound.
The measurement results obtained by measuring the TNFα inhibitory activity and IL-5 inhibitory activity (50% inhibitory concentration) of the test compounds by the above method were evaluated in accordance with the following evaluated basis; A: less than 100 nM, B: 100 nM or more and less than 500 nM, and C: 500 nM or more. In addition, the measurement results obtained by measuring the IL-17A inhibitory activity and IL-4 inhibitory activity (50% inhibitory concentration) of the test compounds were evaluated in accordance with the following evaluated basis; A: less than 500 nM, B: 500 nM or more and less than 5000 nM, and C: 5000 nM or more.

Data set [4] relates to TGF-β. The experiment in a line: TGF-β inhibitory activity using THP1 cells differentiated into macrophages. In kind it is cell-based. Conditions: Homo sapiens, THP-1; THP1 cells differentiated into macrophages, lipopolysaccharide 1 μg/mL, about 7 hours; read-out: TFG-β Inhibitory Activity (Test Example 6). Here is the method:
The TGF-β inhibitory activity was measured using THP1 cells as follows. First, THP1 cells were seeded on a 24-well culture plate at […], and culture was carried out overnight at 37° C. and 5% CO2 in RPMI-1640 medium (containing 10% fetal bovine serum, penicillin, and streptomycin) supplemented with 100 nM phorbol myristate acetate. After that, the cells were differentiated into macrophages by changing to RPMI-1640 medium without phorbol myristate acetate, followed by further culture at 37° C. under 5% CO2 overnight. Next, the THP1 culture plate was washed once with PBS(−) 1 mL/well, and then the test compound and lipopolysaccharide (final concentration 1 μg/mL) were added, followed by culture at 37° C. under 5% CO2 for about 7 hours. After culturing, the entire amount of the medium was collected, and the amount of TGF-β in the centrifuged supernatant was quantified by the sandwich ELISA method. The non-addition of lipopolysaccharide was used as a blank, and the control was obtained by adding only dimethyl sulfoxide instead of the test compound, and the inhibition rate of the test compound against the control was calculated by the following formula. Inhibition Rate (%)={1−(Value at Addition of Each Test Compound−Blank Value)/(Control Value−Blank Value)}×100
In addition, the TGF-β inhibitory activity (concentration for the inhibition rate of 50%) of the test compound was calculated from the inhibition curves based on the inhibition rate for various concentrations of the test compound.
The measurement results obtained by measuring the TFG-β inhibitory activity (50% inhibitory concentration) of the test compounds by the above method were evaluated in accordance with the following evaluated basis; A: less than 1 μM, and B: 1 μM or more.

The test system of data set [5] is TNFα. The experiment in a line: Cytokine suppression using human peripheral blood mononuclear cells: TNFα. It counts as cell-based. Conditions: human PBMC, lipopolysaccharide 1 ng/mL; read-out: TNFα Inhibitory Activity, Human PBMC (Test Example 4). On the procedure:
First, peripheral blood mononuclear cells (PBMC) were separated from whole blood by specific gravity centrifugation. Then, the isolated peripheral blood mononuclear cells were added to RPMI-1640 medium (containing 10% fetal bovine serum, penicillin, streptomycin, L-glutamine, and 2-mercaptoethanol), and cultured in a 96-well plate at 37° C. under 5% CO2 for 0 to 1 hour. The test compound dissolved in dimethyl sulfoxide was added to each well, followed by further culture at 37° C. under 5% CO2 for 1 hour. A medium containing only dimethyl sulfoxide instead of the test compound was added to the control well. To each well, lipopolysaccharide (final concentration 1 ng/mL) as a TNFα production stimulant and an IL-23 production stimulant, or concanavalin A (final concentration 20 μg/mL) as an IL-17A production stimulant was added, followed by culture at 37° C. under 5% CO2. In addition, as IL-4 production stimulus, IL-5 production stimulus, and IL-13 production stimulus, PBMC was seeded on a 96-well plate previously coated with a CD3 antibody (final concentration 3 μg/mL), and a CD28 antibody (final concentration 5 ng/mL) was added. The culture was carried out for about 18 hours for the evaluation of the amounts of TNFα and IL-23, and about 48 hours for the evaluation of the amounts of IL-17A, IL-4, IL-5, and IL-13. After collecting the culture supernatant after culturing, the amount of each cytokine was measured by the sandwich ELISA method in the same manner as in Test Example 3, and the cytokine production suppression rate (inhibition rate) and the cytokine inhibitory activity (concentration for the inhibition rate of 50%) of each test compound were calculated.
The measurement results obtained by measuring the TNFα inhibitory activity and IL-5 inhibitory activity (50% inhibitory concentration) of the test compounds by the above method were evaluated in accordance with the following evaluated basis; A: less than 10 nM, B: 10 nM or more and less than 100 nM, and C: 100 nM or more. In addition, the measurement results obtained by measuring the IL-17A inhibitory activity, IL-23 inhibitory activity, IL-4 inhibitory activity, and IL-13 inhibitory activity (50% inhibitory concentration) of the test compounds were evaluated in accordance with the following evaluated basis; A: less than 500 nM, B: 500 nM or more and less than 5000 nM, and C: 5000 nM or more.

Data set [6] is described as follows: Hepatic metabolic stability (rat liver microsome method). In kind it is in vitro ADME. Conditions: rat liver microsomes 0.5 mg/mL, test substance 1 μM, NADPH 1 mM, 37° C., 30 minutes. A digest of the protocol: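 Rat liver microsomes (0.5 mg/mL final) with test compound (1 μM final) in 100 mM potassium phosphate pH 7.4, 37° C; reaction started with NADPH (1 mM final) after 5 min preincubation. Acetonitrile stop at 0 and 30 min, LC-MS quantitation; % remaining = 30 min/0 min ×100, graded A ≥75%, B 60–<75%, C 45–<60%, D <45%.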

The mark [7] stands for this setting: finer grading of compounds rated A in Evaluation 1, read-out: PDE4 Inhibitory Activity (Evaluation 2).
[8] abbreviates: scintillation proximity assay, class symbols of Evaluation 1, read-out: PDE4 Inhibitory Activity (concentration for the inhibition rate of 50%, IC50), Evaluation 1.
Setting [9] is: scintillation proximity assay, read-out: PDE4 Inhibitory Activity (Evaluation 1; concentration for the inhibition rate of 50%).

For the compound `OC(c1ccc(-c2nccs2)c2oc(N3CC4CCC(C3)N4)nc12)C(F)(F)F` (centres unmarked) [Example 118, 1-(2-(3,8-Diazabicyclo[3.2.1]octan-3-yl)-7-(thiazol-2-yl)benzo[d]oxazol-4-yl)-2,2,2-trifluoroethan-1-ol], in data set [1], the “Mouse Chronic Dermatitis Model (Test Example 8), Oral: edema suppression rate” value (from here on “Mouse Chronic Dermatitis Model”) was “B (B: 40% or more and less than 70%)”. Moreover, the IC50 was 0.001 to 0.011 µM in data set [2] (setting [7]), less than 0.1 µM in data set [2] (setting [8]) and 0.1 to 0.5 µM in data set [3] (Homo sapiens). In data set [2], the PDE4 inhibitory activity entry is given as “particularly excellent”.

Regarding `CC(C)(O)c1cc(-c2nccs2)c2oc(N3CC4CCC(C3)N4)nc2c1OC(F)(F)F` [Example 195, 2-(2-(3,8-diazabicyclo[3.2.1]octan-3-yl)-7-(thiazol-2-yl)-4-(trifluoromethoxy)benzo[d]oxazol-5-yl)propan-2-ol], the IC50 in data set [4] is less than 1 µM; in data set [2] (setting [7]), not above 0.001 µM; in data set [2] (setting [9]) it was less than 0.1 µM; in data set [3] (Homo sapiens) it was 0.1 to 0.5 µM. In addition, the “Mouse Chronic Dermatitis Model” value in data set [1] is “B (B: 40% or more and less than 70%)”. Also, the PDE4 inhibitory activity entry in data set [2] is listed as “particularly excellent”.

For `COC(C)(C)c1cc(-c2nccs2)c2oc(N3CC4CC(C3)N4)nc2c1C(F)(F)F` [Example 176, 2-(3,6-Diazabicyclo[3.1.1]heptan-3-yl)-5-(2-methoxypropan-2-yl)-7-(thiazol-2-yl)-4-(trifluoromethyl)benzo[d]oxazole], the “Mouse Chronic Dermatitis Model” value in data set [1] was “B (B: 40% or more and less than 70%)”. Moreover, the IC50 is 0.001 to 0.011 µM in data set [2] (setting [7]), less than 0.1 µM in data set [2] (setting [8]) and 0.1 to 0.5 µM in data set [3] (Homo sapiens). Moreover, the PDE4 inhibitory activity entry in data set [2] was “particularly excellent”.

`OC(c1ccc(-c2nccs2)c2oc(N3CC4CCC(C3)N4)nc12)C(F)(F)F` (centres unmarked) [Example 119, 1-(2-(3,8-Diazabicyclo[3.2.1]octan-3-yl)-7-(thiazol-2-yl)benzo[d]oxazol-4-yl)-2,2,2-trifluoroethan-1-ol]: the IC50 in data set [5] is less than 0.01 µM; in data set [2] (setting [7]), not above 0.001 µM; in data set [2] (setting [8]), less than 0.1 µM; in data set [3] it was less than 0.1 µM. The “Mouse Chronic Dermatitis Model” value in data set [1] is “A (A: 70% or more)”. The PDE4 inhibitory activity result in data set [2] is recorded as “particularly excellent”.

Consider `OCC(F)(F)Oc1ccc(-c2nccs2)c2oc(N3CC4CC(C3)N4)nc12` [Example 249, 2-((2-(3,6-Diazabicyclo[3.1.1]heptan-3-yl)-7-(thiazol-2-yl)benzo[d]oxazol-4-yl)oxy)-2,2-difluoroethan-1-ol], for which the “Mouse Chronic Dermatitis Model” value in data set [1] was “B (B: 40% or more and less than 70%)”. Also, the IC50 in data set [2] (setting [7]) is not above 0.001 µM; in data set [2] (setting [9]) it was less than 0.1 µM; in data set [3] (Homo sapiens) it was less than 0.1 µM. Besides, the PDE4 inhibitory activity entry in data set [2] was “particularly excellent”. Besides, in data set [6], the “Residual ratio (% remaining for 30-minute reaction)” value is “B (B: 60% or more and less than 75%)”.

Turning to `COC(C)(C)c1cc(-c2nccs2)c2oc(N3CC4CCC(C3)N4)nc2c1OC(F)(F)F` [Example 198, 2-(3,8-Diazabicyclo[3.2.1]octan-3-yl)-5-(2-methoxypropan-2-yl)-7-(thiazol-2-yl)-4-(trifluoromethoxy)benzo[d]oxazole], the results for the IC50 in data set [2] (setting [7]), in data set [2] (setting [9]) and in data set [3] (Homo sapiens) were not above 0.001 µM, less than 0.1 µM and 0.1 to 0.5 µM, respectively. Moreover, the PDE4 inhibitory activity entry in data set [2] is given as “particularly excellent”.
